From article PMC11999280, “Design and screening of novel endosomal escape compounds that enhance functional delivery of oligonucleotides in vitro” (Molecular Therapy. Nucleic Acids, 2025)

Key:
Assay type in all cases: cell-based
[1] = tested on: mCherry-GAL9 expressing U2OS cells; assay: GAL9 recruitment assay, U2OS; settings: calculated mean from >3 independent exp.
Procedure: (§1) Experiments assessing GAL9 localization as an indicator for endosomal remodeling were performed as previously described[15] using 8× stablemCherry-GAL9 expressing cell lines, SHSY5Y, U2OS, 16HBE, NCI-H358, HuH7, HepG2, HEK293, and HeLa. For mCherry-GAL9 recruitment, 3,000 or 6,500 cells/well (depending upon cell line) were seeded into 384-well CellCarrier Ultra plates 24 h prior to treatment (PerkinElmer, catalog no. 6007558). An Echo 655T acoustic dispenser (Labcyte) was used for EEE dose-response preparation by transferring to the cell plate. At assay endpoints, cells were PBS washed, 4% paraformaldehyde fixed at room temperature […] (VWR, catalog no. 9713.1000), and nuclei stained with PBS +1 μg/mL Hoechst 33342 (Thermo Fisher Scientific, catalog no. H21492).
(§2) Imaging was performed using a spinning-disk confocal microscope (Yokogawa: CV8000) with a ×20w objective (numerical aperture 1.0). Cells and mCherry-GAL9 structure identification and quantification were done using Columbus image-analysis software (PerkinElmer version 2.9.0). Data processing was done using Spotfire (Tibco version 11.4) and Prism (GraphPad version 9.1.0). Image panels were assembled using the FigureJ plugin for FIJI.[43] All mCherry-GAL9 experiments were performed three times (N = 3) with duplicated wells per treatment (n = 2).

[2] = tested on: mCherry-GAL9 expressing HEK293 cells; assay: GAL9 recruitment assay, HEK293; settings: calculated mean from >3 independent exp.
Procedure: as §1, §2

[3] = tested on: HeLa_Luc705 cells (pLuc/705 splice-switching reporter); assay: Functional 705-SSO delivery, luciferase splice-switching assay; settings: HeLa-Luc705 + 2 µM SSO; EEE 2.5 - 3 µM; mean from >3 independent experiments
Text: Therefore, next, we functionally screened the SSO delivery in the HeLa_Luc705 reporter cell line. HeLa_Luc705 carries a pLuc/705 splice-switching reporter luciferase gene interrupted by a mutated β-globin intron, which creates a preferentially used cryptic 5′ splice site leading to aberrant splicing. Functional SSO delivery masks the cryptic site, redirecting the splicing machinery to the right splicing site, allowing the measurement of luciferase expression (Figure S1).[25]^,[26]^,[27]^,[28] We used SSO transfection with LF2000 as transfection control and the previously published endosomal escape enhancer CMP05 (here, EEE2) as positive control.[15]
For the assessment of functional SSO therapeutics, a HeLa_Luc705 cell line was grown in DMEM media supplemented with 10% fetal bovine serum (FBS). For most treatments, 10,000 cells/well were seeded in a 96-well plate, 24 h pre-incubated with 1- to 2-μM oligonucleotide, and then treated at the described EEE concentration. At 24 h post-treatment, cells were PBS rinsed and collected for further analysis (treatments and incubation times changed accordingly to the experiment design). Luciferase readout was performed as previously described,[15] using a GloMax 96-well plate microplate luminometer (Promega) immediately after adding 30 μL auto-injected luciferin substrate (Promega Firefly Luciferase Assay System; Thermo Scientific, catalog no. 16174) in a white-walled 96-well plate containing 30 μL 0.1% Triton X-100 (Sigma-Aldrich) cell lysed. Photon exposure time and delay were set to 10 and 2 s after injection. LF2000 was used as the transfection reagent control (Thermo Scientific, catalog no. 11668019). For EEE experiments using 1 or 2 μM SSOs, the control was prepared using lipofection with 100–200 nM SSO; this is to avoid complex induced cell toxicity.
705-SSO was purchased from and synthesized by Integrated DNA Technologies. The 705-SSO sequence was previously published, containing 2′-O-methylated bases and only phosphorothioate-saturated backbone linkages were included.[15] The 705-SSO was high-performance liquid chromatography purified, shipped, and stored in IDTE buffer (10 mM Tris, 0.1 mM EDTA).

[4] = tested on: mCherry-GAL9 expressing SHSY5Y cells; assay: GAL9 recruitment assay, SHSY5Y; settings: calculated mean from >3 independent exp.
Procedure: as §1, §2

[5] = tested on: mCherry-GAL9 expressing HepG2 cells; assay: GAL9 recruitment assay, HepG2; settings: calculated mean from >3 independent exp.
Procedure: as §1, §2

[6] = tested on: mCherry-GAL9 expressing HeLa cells; assay: GAL9 recruitment assay, HeLa; settings: calculated mean from >3 independent exp.
Procedure: as §1, §2

[7] = tested on: mCherry-GAL9 expressing 16HBE cells; assay: GAL9 recruitment assay, 16HBE; settings: calculated mean from >3 independent exp.
Procedure: as §1, §2

[8] = tested on: mCherry-GAL9 expressing NCI-H358 cells; assay: GAL9 recruitment assay, NCI-H358; settings: calculated mean from >3 independent exp.
Procedure: as §1, §2

[9] = tested on: mCherry-GAL9 expressing HuH7 cells; assay: GAL9 recruitment assay, HuH7; settings: calculated mean from >3 independent exp.
Procedure: as §1, §2

CCOc1nn(C2CCN(C)CC2)cc1Nc1ncc(C(F)(F)F)c(-c2c[nH]c3ccccc23)n1 [EEE15]
Gal9 response compared to reference ([1]; EEE 0.31 µM): 0.010 | Gal9 response compared to reference ([1]; EEE 0.62 µM): 0.009 | Gal9 response compared to reference ([1]; EEE 1.25 µM): 0.010 | Gal9 response compared to reference ([1]; EEE 2.5 µM): 0.009 | Gal9 response compared to reference ([1]; EEE 5 µM): 0.014 | Gal9 response compared to reference ([1]; EEE 10 µM): 0.014 | Gal9 response compared to reference ([2]; EEE 0.31 µM): 0.020 | Gal9 response compared to reference ([2]; EEE 0.62 µM): 0.019 | Gal9 response compared to reference ([2]; EEE 1.25 µM): 0.015 | Gal9 response compared to reference ([2]; EEE 2.5 µM): 0.015 | Gal9 response compared to reference ([2]; EEE 5 µM): 0.018 | Gal9 response compared to reference ([2]; EEE 10 µM): 0.022 | Luciferase expression compared to reference [3]: 0.652 | Gal9 response compared to reference ([4]; EEE 0.31 µM): 0.014 | Gal9 response compared to reference ([4]; EEE 0.62 µM): 0.017 | Gal9 response compared to reference ([4]; EEE 1.25 µM): 0.014 | Gal9 response compared to reference ([4]; EEE 2.5 µM): 0.016 | Gal9 response compared to reference ([4]; EEE 5 µM): 0.012 | Gal9 response compared to reference ([4]; EEE 10 µM): 0.012 | Gal9 response compared to reference ([5]; EEE 0.31 µM): 0.008 | Gal9 response compared to reference ([5]; EEE 0.62 µM): 0.008 | Gal9 response compared to reference ([5]; EEE 1.25 µM): 0.009 | Gal9 response compared to reference ([5]; EEE 2.5 µM): 0.007 | Gal9 response compared to reference ([5]; EEE 5 µM): 0.007 | Gal9 response compared to reference ([5]; EEE 10 µM): 0.010 | Gal9 response compared to reference ([6]; EEE 0.31 µM): 0.004 | Gal9 response compared to reference ([6]; EEE 0.62 µM): 0.004 | Gal9 response compared to reference ([6]; EEE 1.25 µM): 0.004 | Gal9 response compared to reference ([6]; EEE 2.5 µM): 0.005 | Gal9 response compared to reference ([6]; EEE 5 µM): 0.004 | Gal9 response compared to reference ([6]; EEE 10 µM): 0.003 | Gal9 response compared to reference ([7]; EEE 0.31 µM): 0.006 | Gal9 response compared to reference ([7]; EEE 0.62 µM): 0.007 | Gal9 response compared to reference ([7]; EEE 1.25 µM): 0.007 | Gal9 response compared to reference ([7]; EEE 2.5 µM): 0.008 | Gal9 response compared to reference ([7]; EEE 5 µM): 0.010 | Gal9 response compared to reference ([7]; EEE 10 µM): 0.034 | Gal9 response compared to reference ([8]; EEE 0.31 µM): 0.013 | Gal9 response compared to reference ([8]; EEE 0.62 µM): 0.016 | Gal9 response compared to reference ([8]; EEE 1.25 µM): 0.017 | Gal9 response compared to reference ([8]; EEE 2.5 µM): 0.015 | Gal9 response compared to reference ([8]; EEE 5 µM): 0.016 | Gal9 response compared to reference ([8]; EEE 10 µM): 0.011 | Gal9 response compared to reference ([9]; EEE 0.31 µM): 0.008 | Gal9 response compared to reference ([9]; EEE 0.62 µM): 0.007 | Gal9 response compared to reference ([9]; EEE 1.25 µM): 0.008 | Gal9 response compared to reference ([9]; EEE 2.5 µM): 0.009 | Gal9 response compared to reference ([9]; EEE 5 µM): 0.009 | Gal9 response compared to reference ([9]; EEE 10 µM): 0.011

COc1nn(C2CCN(C)CC2)cc1Nc1ncc(C(F)(F)F)c(-n2ccc3c(C#N)cccc32)n1 [EEE16]
Gal9 response compared to reference ([1]; EEE 0.31 µM): 0.010 | Gal9 response compared to reference ([1]; EEE 0.62 µM): 0.011 | Gal9 response compared to reference ([1]; EEE 1.25 µM): 0.010 | Gal9 response compared to reference ([1]; EEE 2.5 µM): 0.010 | Gal9 response compared to reference ([1]; EEE 5 µM): 0.010 | Gal9 response compared to reference ([1]; EEE 10 µM): 0.024 | Gal9 response compared to reference ([2]; EEE 0.31 µM): 0.023 | Gal9 response compared to reference ([2]; EEE 0.62 µM): 0.020 | Gal9 response compared to reference ([2]; EEE 1.25 µM): 0.019 | Gal9 response compared to reference ([2]; EEE 2.5 µM): 0.022 | Gal9 response compared to reference ([2]; EEE 5 µM): 0.024 | Gal9 response compared to reference ([2]; EEE 10 µM): 0.121 | Luciferase expression compared to reference [3]: 0.810 | Gal9 response compared to reference ([4]; EEE 0.31 µM): 0.014 | Gal9 response compared to reference ([4]; EEE 0.62 µM): 0.014 | Gal9 response compared to reference ([4]; EEE 1.25 µM): 0.012 | Gal9 response compared to reference ([4]; EEE 2.5 µM): 0.012 | Gal9 response compared to reference ([4]; EEE 5 µM): 0.012 | Gal9 response compared to reference ([4]; EEE 10 µM): 0.042 | Gal9 response compared to reference ([5]; EEE 0.31 µM): 0.010 | Gal9 response compared to reference ([5]; EEE 0.62 µM): 0.007 | Gal9 response compared to reference ([5]; EEE 1.25 µM): 0.008 | Gal9 response compared to reference ([5]; EEE 2.5 µM): 0.008 | Gal9 response compared to reference ([5]; EEE 5 µM): 0.009 | Gal9 response compared to reference ([5]; EEE 10 µM): 0.010 | Gal9 response compared to reference ([6]; EEE 0.31 µM): 0.004 | Gal9 response compared to reference ([6]; EEE 0.62 µM): 0.004 | Gal9 response compared to reference ([6]; EEE 1.25 µM): 0.003 | Gal9 response compared to reference ([6]; EEE 2.5 µM): 0.004 | Gal9 response compared to reference ([6]; EEE 5 µM): 0.004 | Gal9 response compared to reference ([6]; EEE 10 µM): 0.005 | Gal9 response compared to reference ([7]; EEE 0.31 µM): 0.008 | Gal9 response compared to reference ([7]; EEE 0.62 µM): 0.009 | Gal9 response compared to reference ([7]; EEE 1.25 µM): 0.008 | Gal9 response compared to reference ([7]; EEE 2.5 µM): 0.007 | Gal9 response compared to reference ([7]; EEE 5 µM): 0.011 | Gal9 response compared to reference ([7]; EEE 10 µM): 0.129 | Gal9 response compared to reference ([8]; EEE 0.31 µM): 0.014 | Gal9 response compared to reference ([8]; EEE 0.62 µM): 0.017 | Gal9 response compared to reference ([8]; EEE 1.25 µM): 0.014 | Gal9 response compared to reference ([8]; EEE 2.5 µM): 0.018 | Gal9 response compared to reference ([8]; EEE 5 µM): 0.014 | Gal9 response compared to reference ([8]; EEE 10 µM): 0.019 | Gal9 response compared to reference ([9]; EEE 0.31 µM): 0.009 | Gal9 response compared to reference ([9]; EEE 0.62 µM): 0.007 | Gal9 response compared to reference ([9]; EEE 1.25 µM): 0.008 | Gal9 response compared to reference ([9]; EEE 2.5 µM): 0.012 | Gal9 response compared to reference ([9]; EEE 5 µM): 0.008 | Gal9 response compared to reference ([9]; EEE 10 µM): 0.022
